Assays:
Assay type in all cases: cell-based
[1] = test system: Lactococcus lactis and Lactobacillus jensenii; experiment: pH of test gel after co-culture of Lactococcus lactis and Lactobacillus jensenii; details: cultivated 32 hours
Source text: (§1) 2.1 Experimental strains: one Lactococcus lactis strain and one Lactobacillus jensenii strain, both were clinical isolates.
(§2) The pH value was adjusted to 5.0.
(§3) 2.4 Experimental procedure: the test gel tubes containing different concentrations of antimicrobial agents, as shown in Tables 1 to 6 were inoculated with 100 microliters of Lactobacillus lactis suspension and 100 microliters of Lactobacillus jensenii suspension at the same time. The turbidities of both suspensions were 0.5 MCF. Then the tubes were cultivated at 37° C. and under 5 percent CO2 for 32 hours. Then the changes of the pH values of gels were tested. The gels were smeared, Gram stained, and microscopically examined for the morphology and quantity of bacteria.

Lactococcus lactis = experiment: Gram-stained smear of co-culture gel, Gram-positive cocci (G+c); details: for Smear G^+c: cultivated 32 hours
Source text: as §1, §2, §3

Lactobacillus jensenii = experiment: Gram-stained smear of co-culture gel, Gram-positive rods (G+b); details: for Smear G^+b: cultivated 32 hours
Source text: as §1, §2, §3

[2] = test system: three strains of Escherichia coli isolated from the vaginal secretion of patients with vaginitis; experiment: Growth in enrichment broth (turbidity after 24 hours), clinical strains
Source text: (§4) a. Experimental strains, three strains of Escherichia coli and three strains of Staphylococcus aureus, which were all isolated from the vaginal secretion of patients with vaginitis.
(§5) b. Enrichment broth, which contained 1 percent of yeast extract powder, 9 percent of sucrose, 0.025 percent of manganese sulfate (MnSO4.4H2O), 0.058 percent of magnesium sulfate (MgSO4.7H2O), and 0.9 percent of lactic acid, the pH value of the broth was adjusted to 4.8, and the enrichment broth was sterilized for later use;
(§6) (2). Experimental groups: the requirements for aseptic operation technique were strictly followed to prepare the sterile test tubes:
(§7) a. sodium benzoate group: each test tube contained 5 milliliters of enrichment broth, and was added in 0.05 percent (weight/volume) sodium benzoate;
(§8) b. 2-phenylethanol group: each test tube contained 5 milliliters of enrichment broth, and was added in 0.05 percent (weight/volume) of 2-phenylethanol;
(§9) c. sodium propionate group: each test tube contained 5 milliliters of enrichment broth, and was added in 0.25 percent (weight/volume) of sodium propionate;
(§10) d. “a group of the combinations of sodium benzoate and sodium propionate”: each test tube contained 5 milliliters of enrichment broth, and was added in 0.05 percent (weight/volume) of sodium benzoate and 0.25 percent (weight/volume) of sodium propionate;
(§11) e. “a group of the combinations of sodium benzoate and 2-phenylethanol”: each test tube contained 5 milliliters of enrichment broth, and was added in 0.05 percent (weight/volume) of sodium benzoate and 0.05 percent (weight/volume) of 2-phenylethanol;
(§12) f. “a group of the combinations of sodium propionate and 2-phenylethanol”: each test tube contained 5 milliliters of enrichment broth, and was added in 0.25 percent (weight/volume) of sodium propionate and 0.05 percent (weight/volume) of 2-phenylethanol;
(§13) g. “a group of the combinations of sodium benzoate, sodium propionate and 2-phenylethanol”: each test tube contained 5 milliliters of enrichment broth, and was added in 0.05 percent (weight/volume) of sodium benzoate, 0.25 percent (weight/volume) of sodium propionate, and 0.05 percent (weight/volume) of 2-phenylethanol;
(§14) h. positive control: one tube that contained 5 milliliters of enrichment broth without adding in any of the 2-phenylethanol, sodium benzoate, and sodium propionate, but inoculated the suspension of Escherichia coli or Staphylococcus aureus.
(§15) i. negative control: one tube that contained 5 milliliters of enrichment broth without adding in any of the 2-phenylethanol, sodium benzoate, and sodium propionate, and not inoculated the suspension of Escherichia coli or Staphylococcus aureus.
(§16) The requirements for aseptic operation technique were strictly followed to prepare the bacterial suspensions. The colonies of Escherichia coli and Staphylococcus aureus were diluted with physiological saline respectively to prepare bacterial suspension. The turbidities of the Escherichia coli suspension and the Staphylococcus aureus suspension were adjusted to 0.5 MCF (about 10^8 CFU/ml) by a turbidimeter. 1 milliliter of the 0.5 MCF bacterial suspensions were added into 9 milliliters of the enrichment broth respectively, so each bacterial solution was diluted for ten times to contain 10^7 CFU/ml of bacterial organisms.
(§17) The requirements for aseptic operation technique were strictly followed to take 100 microliters of the prepared bacterial suspensions respectively, and to add the bacterial suspensions into the aforesaid test tubes from a to h as well as positive control tube. No bacterial suspension was added into the negative control tube i.
(§18) The above tubes were cultured in a biochemical incubator at 37° C. for 24 hours, then turbidity changes of the test tube solutions were observed and recorded.
(§19) Remark: “+” means the growth of bacteria; “−” means no growth of bacteria.

[3] = test system: three strains of Staphylococcus aureus isolated from the vaginal secretion of patients with vaginitis; experiment: as above
Source text: as §4, §5, §6, §7, §8, §9, §10, §11, §12, §13, §14, §15, §16, §17, §18, §19

[4] = 0.05 percent (weight/volume) in enrichment broth pH 4.8, 37° C. 24 hours
[5] = 0.25 percent (weight/volume) in enrichment broth pH 4.8, 37° C. 24 hours

OCCc1ccccc1 [2-phenylethanol]
pH value ([1]; 0.15 % in test gel): <3.8
pH value ([1]; 0.2 % in test gel): <3.8
pH value ([1]; 0.25 % in test gel): <3.8
pH value ([1]; 0.3 % in test gel): <3.8
pH value ([1]; 0.35 % in test gel): 3.8-4.1
pH value ([1]; 0.4 % in test gel): 4.4
pH value ([1]; 0.45 % in test gel): 4.6
pH value ([1]; 0.5 % in test gel): 4.8
Smear G^+c (Lactococcus lactis; 0.15 % in test gel): G^+c+++
Smear G^+c (Lactococcus lactis; 0.2 % in test gel): G^+c+++
Smear G^+c (Lactococcus lactis; 0.25 % in test gel): G^+c+++
Smear G^+c (Lactococcus lactis; 0.3 % in test gel): G^+c+++
Smear G^+c (Lactococcus lactis; 0.35 % in test gel): G^+c+~+
inhibition effect on the growth of Lactococcus lactis (Lactococcus lactis; 0.35 to 0.45 percent): stronger inhibition effect
Smear G^+c (Lactococcus lactis; 0.4 % in test gel): G^+c+
Smear G^+b (Lactobacillus jensenii; 0.15 % in test gel): G^+b+
Smear G^+b (Lactobacillus jensenii; 0.2 % in test gel): G^+b+
Smear G^+b (Lactobacillus jensenii; 0.25 % in test gel): G^+b+
Smear G^+b (Lactobacillus jensenii; 0.3 % in test gel): G^+b+
Smear G^+b (Lactobacillus jensenii; 0.35 % in test gel): G^+b+++
inhibition effect on the growth of Lactobacillus (Lactobacillus jensenii; 0.35 to 0.45 percent): weaker inhibition effect
Smear G^+b (Lactobacillus jensenii; 0.4 % in test gel): G^+b++
Smear G^+b (Lactobacillus jensenii; 0.45 % in test gel): G^+b++
Smear G^+b (Lactobacillus jensenii; 0.5 % in test gel): G^+b+
could inhibit the growth of Escherichia coli (agent alone, words) [2, 4]: no one of the three antimicrobial agents
could inhibit the growth of Staphylococcus aureus (agent alone, words) [3, 4]: no one of the three antimicrobial agents

CCC(=O)[O-].[Na+] [sodium propionate]
pH value ([1]; 0.1 % in test gel): 3.8
pH value ([1]; 0.2 % in test gel): 3.8
pH value ([1]; 0.3 % in test gel): 3.8
pH value ([1]; 0.4 % in test gel): 4.4
pH value ([1]; 0.5 % in test gel): 4.4-4.6
pH value ([1]; 0.6 % in test gel): 4.6
pH value ([1]; 0.7 % in test gel): 4.8
Smear G^+c (Lactococcus lactis; 0.1 % in test gel): G^+c+++
Smear G^+c (Lactococcus lactis; 0.2 % in test gel): G^+c+++
Smear G^+c (Lactococcus lactis; 0.3 % in test gel): G^+c+++
Smear G^+c (Lactococcus lactis; 0.4 % in test gel): G^+c+
inhibition effect on the growth of Lactococcus lactis (Lactococcus lactis; 0.4 to 0.6 percent): stronger inhibition effect
Smear G^+c (Lactococcus lactis; 0.5 % in test gel): G^+c+
Smear G^+b (Lactobacillus jensenii; 0.1 % in test gel): G^+b+
Smear G^+b (Lactobacillus jensenii; 0.2 % in test gel): G^+b+
Smear G^+b (Lactobacillus jensenii; 0.3 % in test gel): G^+b+
Smear G^+b (Lactobacillus jensenii; 0.4 % in test gel): G^+b++
inhibition effect on the growth of Lactobacillus (Lactobacillus jensenii; 0.4 to 0.6 percent): weaker inhibition effect
Smear G^+b (Lactobacillus jensenii; 0.5 % in test gel): G^+b++
Smear G^+b (Lactobacillus jensenii; 0.6 % in test gel): G^+b++
Smear G^+b (Lactobacillus jensenii; 0.7 % in test gel): G^+b+
could inhibit the growth of Escherichia coli (agent alone, words) [2, 5]: no one of the three antimicrobial agents
could inhibit the growth of Staphylococcus aureus (agent alone, words) [3, 5]: no one of the three antimicrobial agents

— patent US20190231748A1, “COMPOSITION FOR VAGINA AND ANTIMICROBIAL AGENT COMBINATION FOR USE IN PREPARING COMPOSITION FOR VAGINA” (Shenzhen Eulikan Biotechnology Co., Ltd., priority 2016, published 2019)
